According to publication PMC5214259, “Identification of Guanosine 5′-diphosphate as Potential Iron Mobilizer: Preventing the Hepcidin-Ferroportin Interaction and Modulating the Interleukin-6/Stat-3 Pathway” (Scientific Reports, 2017):

Target: T1, hepcidin (Homo sapiens, UniProt P81172)
T1 construct: gene HAMP; hepcidin-25 (25 amino acid peptide hormone)
T1 sequence (P81172 60-84 limits assumed): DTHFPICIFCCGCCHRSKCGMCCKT
Assay: UV-visible absorption titration (Kd); thermal shift assay (SYPRO orange, Tm […] to […] °C with equimolar GDP)
Format: binding

## Nc1nc2c(ncn2[C@@H]2O[C@H](COP(=O)(O)OP(=O)(O)O)[C@@H](O)[C@H]2O)c(=O)[nH]1 [ZINC08215481, guanosine 5′-diphosphate]
  Kd: 5.88 µM
